Experimental data as given in publication PMC10175918 (Communications Biology, 2023).
Like-named read-outs stand apart in the source and are kept apart here.

Columns and labels:
Test in all cases: TGFα-shedding assay-based GPCR screening with chimeric Gα subunit proteins
Type in all cases: cell-based
348 GPCRs [1] = biological target: T1, 348 GPCRs (Homo sapiens, UniProt P04201)
T1 construct: expressed in transfected cells; host or cells: HEK293A
T1 sequence (P04201 1-325): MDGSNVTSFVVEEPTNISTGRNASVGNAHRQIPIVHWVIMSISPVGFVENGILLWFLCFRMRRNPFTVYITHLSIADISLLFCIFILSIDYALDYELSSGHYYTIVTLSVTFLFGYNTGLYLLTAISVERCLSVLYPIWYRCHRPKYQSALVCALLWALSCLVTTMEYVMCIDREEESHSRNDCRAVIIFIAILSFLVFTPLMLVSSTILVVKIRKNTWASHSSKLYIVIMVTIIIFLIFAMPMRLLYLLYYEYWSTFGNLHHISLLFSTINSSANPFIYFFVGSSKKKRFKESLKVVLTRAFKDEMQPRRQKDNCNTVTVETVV

348 GPCRs [2] = biological target: T2, 348 GPCRs (Homo sapiens, UniProt Q8WXD0); conditions: RXFP2 (relaxin/insulin-like family peptide receptor 2); 10µM, Favipiravir 100μM
T2 construct: expressed in transfected cells; host or cells: HEK293A
T2 sequence (Q8WXD0 whole entry): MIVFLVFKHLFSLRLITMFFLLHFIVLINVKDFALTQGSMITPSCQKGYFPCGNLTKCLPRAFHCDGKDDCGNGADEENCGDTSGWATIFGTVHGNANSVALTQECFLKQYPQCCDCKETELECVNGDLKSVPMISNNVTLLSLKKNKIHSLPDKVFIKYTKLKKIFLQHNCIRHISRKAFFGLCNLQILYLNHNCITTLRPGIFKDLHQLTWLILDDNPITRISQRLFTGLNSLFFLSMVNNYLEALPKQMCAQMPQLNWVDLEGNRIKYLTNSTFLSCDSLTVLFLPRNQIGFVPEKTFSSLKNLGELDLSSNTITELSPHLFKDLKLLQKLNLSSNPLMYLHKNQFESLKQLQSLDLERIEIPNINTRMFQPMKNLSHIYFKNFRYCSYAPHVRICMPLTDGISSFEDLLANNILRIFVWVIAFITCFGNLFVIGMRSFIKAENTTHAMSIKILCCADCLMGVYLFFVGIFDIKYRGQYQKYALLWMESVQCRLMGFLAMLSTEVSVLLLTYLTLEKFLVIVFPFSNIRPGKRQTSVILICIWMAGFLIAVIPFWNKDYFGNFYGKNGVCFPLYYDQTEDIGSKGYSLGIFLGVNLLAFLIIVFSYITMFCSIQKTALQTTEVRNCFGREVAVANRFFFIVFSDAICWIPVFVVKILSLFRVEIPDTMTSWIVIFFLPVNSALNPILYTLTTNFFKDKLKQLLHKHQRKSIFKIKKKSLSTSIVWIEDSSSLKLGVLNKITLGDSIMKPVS

348 GPCRs [3] = biological target: T3, 348 GPCRs (Homo sapiens, UniProt Q01726)
T3 construct: expressed in transfected cells; host or cells: HEK293A
T3 sequence (Q01726 whole entry): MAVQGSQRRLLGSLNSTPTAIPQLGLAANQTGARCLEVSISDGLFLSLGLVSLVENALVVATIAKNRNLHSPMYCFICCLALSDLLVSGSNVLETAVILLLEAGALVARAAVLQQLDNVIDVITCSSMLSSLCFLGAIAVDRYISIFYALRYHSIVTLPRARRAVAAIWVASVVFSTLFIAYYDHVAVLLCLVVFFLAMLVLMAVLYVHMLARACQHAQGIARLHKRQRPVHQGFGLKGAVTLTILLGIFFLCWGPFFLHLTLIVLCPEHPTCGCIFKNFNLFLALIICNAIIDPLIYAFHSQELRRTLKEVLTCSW

348 GPCRs [4] = biological target: T4, 348 GPCRs (Homo sapiens, UniProt Q5T848); conditions: 10µM, Favipiravir 100μM
T4 construct: expressed in transfected cells; host or cells: HEK293A
T4 sequence (Q5T848 24-1215): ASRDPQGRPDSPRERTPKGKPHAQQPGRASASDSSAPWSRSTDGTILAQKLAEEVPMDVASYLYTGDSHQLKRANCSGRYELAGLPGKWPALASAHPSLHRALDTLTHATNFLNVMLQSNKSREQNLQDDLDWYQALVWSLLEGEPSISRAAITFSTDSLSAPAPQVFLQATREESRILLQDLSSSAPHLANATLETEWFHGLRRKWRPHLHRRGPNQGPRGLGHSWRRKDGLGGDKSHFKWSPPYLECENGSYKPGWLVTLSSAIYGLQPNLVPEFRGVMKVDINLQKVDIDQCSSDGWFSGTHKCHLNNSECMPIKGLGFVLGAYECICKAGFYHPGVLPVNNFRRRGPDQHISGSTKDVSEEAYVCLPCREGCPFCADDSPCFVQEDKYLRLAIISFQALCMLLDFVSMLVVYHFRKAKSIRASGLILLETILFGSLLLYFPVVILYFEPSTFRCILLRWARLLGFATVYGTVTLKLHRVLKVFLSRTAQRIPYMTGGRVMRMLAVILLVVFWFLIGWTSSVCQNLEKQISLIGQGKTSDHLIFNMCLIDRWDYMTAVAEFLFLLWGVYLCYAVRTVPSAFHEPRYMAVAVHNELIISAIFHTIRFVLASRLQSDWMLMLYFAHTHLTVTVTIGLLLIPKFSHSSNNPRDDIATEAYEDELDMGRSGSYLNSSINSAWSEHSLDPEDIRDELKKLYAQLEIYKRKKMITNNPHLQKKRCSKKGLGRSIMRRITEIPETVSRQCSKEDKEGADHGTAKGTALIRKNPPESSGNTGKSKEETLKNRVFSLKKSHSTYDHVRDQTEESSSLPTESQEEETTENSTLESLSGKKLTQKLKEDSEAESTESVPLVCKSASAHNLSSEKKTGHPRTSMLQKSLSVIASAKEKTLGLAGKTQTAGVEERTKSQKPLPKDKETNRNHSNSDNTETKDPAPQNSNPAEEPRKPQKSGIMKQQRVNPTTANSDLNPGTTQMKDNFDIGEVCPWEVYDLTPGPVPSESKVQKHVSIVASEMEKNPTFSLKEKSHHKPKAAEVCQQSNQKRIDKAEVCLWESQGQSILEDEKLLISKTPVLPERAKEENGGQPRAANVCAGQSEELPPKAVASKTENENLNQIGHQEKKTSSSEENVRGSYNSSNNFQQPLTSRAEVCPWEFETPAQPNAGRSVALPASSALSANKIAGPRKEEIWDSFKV

348 GPCRs [5] = biological target: T5, 348 GPCRs (Homo sapiens, UniProt P04000); conditions: 10µM, Favipiravir 100μM
T5 construct: expressed in transfected cells; host or cells: HEK293A
T5 sequence (P04000 1-364): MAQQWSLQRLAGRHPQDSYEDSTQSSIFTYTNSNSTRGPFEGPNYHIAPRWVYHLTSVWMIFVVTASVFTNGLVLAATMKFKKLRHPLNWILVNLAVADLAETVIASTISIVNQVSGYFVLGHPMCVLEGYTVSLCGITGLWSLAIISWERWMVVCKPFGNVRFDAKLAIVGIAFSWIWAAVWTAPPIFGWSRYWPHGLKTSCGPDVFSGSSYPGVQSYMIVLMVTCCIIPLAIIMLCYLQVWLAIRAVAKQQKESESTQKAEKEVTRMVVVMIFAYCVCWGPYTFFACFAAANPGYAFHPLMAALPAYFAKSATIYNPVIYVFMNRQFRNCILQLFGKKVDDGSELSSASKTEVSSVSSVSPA

348 GPCRs [6] = biological target: T6, 348 GPCRs (Homo sapiens, UniProt Q14416); conditions: 10µM, Favipiravir 100μM
T6 construct: expressed in transfected cells; host or cells: HEK293A
T6 sequence (Q14416 19-872): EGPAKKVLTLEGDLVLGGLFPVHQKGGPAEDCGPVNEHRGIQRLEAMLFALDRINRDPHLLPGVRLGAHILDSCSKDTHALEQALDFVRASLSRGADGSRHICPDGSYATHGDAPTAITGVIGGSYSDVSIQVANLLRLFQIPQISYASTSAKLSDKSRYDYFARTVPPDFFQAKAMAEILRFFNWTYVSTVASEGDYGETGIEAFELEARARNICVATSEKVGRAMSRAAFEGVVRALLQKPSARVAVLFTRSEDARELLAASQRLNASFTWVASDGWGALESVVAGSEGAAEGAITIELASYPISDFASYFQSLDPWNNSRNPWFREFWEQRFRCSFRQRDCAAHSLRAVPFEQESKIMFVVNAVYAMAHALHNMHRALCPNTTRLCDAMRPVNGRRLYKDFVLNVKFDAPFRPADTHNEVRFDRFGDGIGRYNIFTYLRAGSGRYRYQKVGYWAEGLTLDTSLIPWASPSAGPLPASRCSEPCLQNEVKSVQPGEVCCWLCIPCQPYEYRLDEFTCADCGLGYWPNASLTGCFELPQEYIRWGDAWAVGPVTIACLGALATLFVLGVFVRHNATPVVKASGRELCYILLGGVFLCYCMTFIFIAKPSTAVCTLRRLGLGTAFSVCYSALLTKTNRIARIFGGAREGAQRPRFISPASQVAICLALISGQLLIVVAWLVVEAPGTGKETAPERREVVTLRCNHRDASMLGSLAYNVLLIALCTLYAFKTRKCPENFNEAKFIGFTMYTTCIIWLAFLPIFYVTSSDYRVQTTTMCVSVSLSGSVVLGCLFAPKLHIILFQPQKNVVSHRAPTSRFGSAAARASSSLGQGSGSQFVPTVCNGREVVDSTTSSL

348 GPCRs [7] = biological target: T7, 348 GPCRs (Homo sapiens, UniProt P08913)
T7 construct: expressed in transfected cells; host or cells: HEK293A
T7 sequence (P08913 1-465): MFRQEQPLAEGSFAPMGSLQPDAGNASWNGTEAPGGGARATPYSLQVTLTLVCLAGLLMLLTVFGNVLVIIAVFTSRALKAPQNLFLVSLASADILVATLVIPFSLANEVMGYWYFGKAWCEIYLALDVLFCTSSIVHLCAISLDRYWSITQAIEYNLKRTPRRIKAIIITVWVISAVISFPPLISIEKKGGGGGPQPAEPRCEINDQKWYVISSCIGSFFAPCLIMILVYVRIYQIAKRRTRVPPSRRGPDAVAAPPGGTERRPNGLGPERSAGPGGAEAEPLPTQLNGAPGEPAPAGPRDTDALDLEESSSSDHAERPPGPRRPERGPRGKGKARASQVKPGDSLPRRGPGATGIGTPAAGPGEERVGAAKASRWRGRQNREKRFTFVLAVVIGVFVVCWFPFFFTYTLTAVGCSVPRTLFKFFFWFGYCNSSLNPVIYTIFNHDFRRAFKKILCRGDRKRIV

[8] = GPCR MAS1 (MAS1 oncogene), read-out: % GPCR activation compared to TPA
[9] = GPCR MC1R (melanocyte-stimulating hormone receptor), read-out: % GPCR activation compared to TPA
[10] = GPR158 (G Protein-Coupled Receptor 158), read-out: % GPCR activation compared to TPA
[11] = OPN1LW (opsin 1 (cone pigments), long-wave-sensitive), read-out: % GPCR activation compared to TPA
[12] = GRM2 (glutamate metabotropic receptor 2), read-out: % GPCR activation compared to TPA
[13] = GPCR α2A (adrenoceptor alpha 2A), read-out: % GPCR activation compared to TPA
[14] = read-out: % GPCR activation compared to TPA, GPCR MAS1 (MAS1 oncogene)
[15] = read-out: % GPCR activation compared to TPA, GPCR MC1R (melanocyte-stimulating hormone receptor)
[16] = read-out: % GPCR activation compared to TPA, GPR158 (G Protein-Coupled Receptor 158)
[17] = read-out: % GPCR activation compared to TPA, OPN1LW (opsin 1 (cone pigments), long-wave-sensitive)
[18] = read-out: % GPCR activation compared to TPA, GRM2 (glutamate metabotropic receptor 2)
[19] = read-out: % GPCR activation compared to TPA, GPCR α2A (adrenoceptor alpha 2A)

Row | SMILES | activation at 10 µM (348 GPCRs [1]; [8]) [%] | % GPCR activation compared to TPA (348 GPCRs [2]) [%] | activation at 10 µM (348 GPCRs [3]; [9]) [%] | activation at 10 µM (348 GPCRs [4]; [10]) [%] | activation at 100 µM (348 GPCRs [5]; [11]) [%] | activation at 10 µM (348 GPCRs [6]; [12]) [%] | activation at 10 µM (348 GPCRs [7]; [13]) [%] | activation at 100 µM (348 GPCRs [1]; GPCR MAS1 (MAS1 oncogene), 100μM, read-out: % GPCR activation compared to TPA) [%] | activation at 100 µM (348 GPCRs [3]; GPCR MC1R (melanocyte-stimulating hormone receptor), 100μM, read-out: % GPCR activation compared to TPA) [%] | activation at 100 µM (348 GPCRs [7]; GPCR α2A (adrenoceptor alpha 2A), 100μM, read-out: % GPCR activation compared to TPA) [%] | activation at 10 µM (348 GPCRs [1]; [14]) [%] | activation at 10 µM (348 GPCRs [3]; [15]) [%] | activation at 10 µM (348 GPCRs [4]; [16]) [%] | activation at 100 µM (348 GPCRs [5]; [17]) [%] | activation at 10 µM (348 GPCRs [6]; [18]) [%] | activation at 10 µM (348 GPCRs [7]; [19]) [%]
1 | CCC(CC)COC(=O)[C@H](C)N[P@](=O)(OC[C@H]1O[C@@](C#N)(c2ccc3c(N)ncnn23)[C@H](O)[C@@H]1O)Oc1ccccc1 [remdesivir] |  | 0.3691 |  |  |  |  |  |  |  |  | 21.3 | -0.549 | 0.972 | 0.199 | 1.1 | 8.13
2 | CC(C)OC(=O)[C@H](C)N[P@](=O)(OC[C@H]1O[C@@H](n2ccc(=O)[nH]c2=O)[C@](C)(F)[C@@H]1O)Oc1ccccc1 [sofosbuvir] |  | -1.511 |  |  |  |  |  |  |  |  | 2.48 | 0.575 | 3.31 | -0.65 | -2.27 | -2.48

Now from value to compound, other results behind:

Row | activation at 10 µM (348 GPCRs [1]; [8]) [%] | % GPCR activation compared to TPA (348 GPCRs [2]) [%] | activation at 10 µM (348 GPCRs [3]; [9]) [%] | activation at 10 µM (348 GPCRs [4]; [10]) [%] | activation at 100 µM (348 GPCRs [5]; [11]) [%] | activation at 10 µM (348 GPCRs [6]; [12]) [%] | activation at 10 µM (348 GPCRs [7]; [13]) [%] | activation at 100 µM (348 GPCRs [1]; GPCR MAS1 (MAS1 oncogene), 100μM, read-out: % GPCR activation compared to TPA) [%] | activation at 100 µM (348 GPCRs [3]; GPCR MC1R (melanocyte-stimulating hormone receptor), 100μM, read-out: % GPCR activation compared to TPA) [%] | activation at 100 µM (348 GPCRs [7]; GPCR α2A (adrenoceptor alpha 2A), 100μM, read-out: % GPCR activation compared to TPA) [%] | SMILES | activation at 10 µM (348 GPCRs [1]; [14]) [%] | activation at 10 µM (348 GPCRs [3]; [15]) [%] | activation at 10 µM (348 GPCRs [4]; [16]) [%] | activation at 100 µM (348 GPCRs [5]; [17]) [%] | activation at 10 µM (348 GPCRs [6]; [18]) [%] | activation at 10 µM (348 GPCRs [7]; [19]) [%]
3 | -19.1 | -1.305 | 0.496 | 0.213 | -0.985 | 0.673 | -0.949 |  |  |  | N#C[C@@]1(c2ccc3c(N)ncnn23)O[C@H](CO)[C@@H](O)[C@H]1O [GS441524] |  |  |  |  |  | 
4 |  | -0.6733 |  | 2.24 | 0.263 | -0.721 |  | -7.84 | -0.375 | 1.73 | NC(=O)c1nc(F)cnc1O [favipiravir, 6-fluoro-3-hydroxy-2-pyrazinecarboxamide] |  |  |  |  |  | 
5 | -15.3 | -1.679 | 0.0444 | 1.57 | 0.884 | 0.98 | -0.00545 |  |  |  | CC(C)C(=O)OC[C@H]1O[C@@H](n2ccc(NO)nc2=O)[C@H](O)[C@@H]1O [molnupiravir] |  |  |  |  |  | 
